Experimental data: patent US20260250257A1, “ANTIBACTERIAL AND SYNERGISTIC ACTIVE COMPOUND AND USE THEREOF” (EAST CHINA UNIVERSITY OF SCIENCE AND TECHNOLOGY, priority 2023, published 2026)

How the values were obtained:
Format in all cases: cell-based
[1] = test system: ATCC25922 strain (Escherichia coli); assay: Broth microdilution, antibacterial activity of the compound used alone
Text: (§1) The broth microdilution method was used to test the antibacterial effects of the compounds of the present invention against various Gram-negative bacterial strains when used alone.

[2] = test system: ATCC9027 strain (Pseudomonas aeruginosa); assay: as above
Text: as §1

[3] = test system: ATCC19606 strain (Acinetobacter baumannii); assay: as above
Text: as §1

[4] = test system: ATCC13883 strain (Klebsiella pneumoniae); assay: as above
Text: as §1

[5] = test system: ATCC25922 strain (Escherichia coli); assay: Checkerboard antibacterial synergistic activity test with polymyxin E (FIC); parameters: key: FIC≤0.5 synergy; 0.5–1 additive; 1–2 indifferent; ≥2 antagonism; conditions: combined with polymyxin E
Procedure, shortened: (§2)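 Interaction is reported as the fractional inhibitory concentration, read after 16 h of growth at 37° C. in Mueller-Hinton broth. Each well paired one level of polymyxin E (prepared at 16 to 0.015 μg/ml) with one of the test agent (prepared at 256 to 4 μg/ml) before bacteria were added.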

[6] = test system: ATCC9027 strain (Pseudomonas aeruginosa); assay: as above; parameters: key: FIC≤0.5 synergy; 0.5–1 additive; 1–2 indifferent; ≥2 antagonism; conditions: combined with polymyxin E
Procedure, shortened: as §2

[7] = test system: ATCC19606 strain (Acinetobacter baumannii); assay: as above; parameters: key: FIC≤0.5 synergy; 0.5–1 additive; 1–2 indifferent; ≥2 antagonism; conditions: combined with polymyxin E
Procedure, shortened: as §2

[8] = test system: ATCC13883 strain (Klebsiella pneumoniae); assay: as above; parameters: key: FIC≤0.5 synergy; 0.5–1 additive; 1–2 indifferent; ≥2 antagonism; conditions: combined with polymyxin E
Procedure, shortened: as §2

| SMILES | Antibacterial activity of the compound of Formula I, ATCC25922 [1] [µg/mL] | Antibacterial activity of the compound of Formula I, ATCC9027 [2] [µg/mL] | Antibacterial activity of the compound of Formula I, ATCC19606 [3] [µg/mL] | Antibacterial activity of the compound of Formula I, ATCC13883 [4] [µg/mL] | Synergistic activity (FIC value) ATCC25922 [5] | Synergistic activity (FIC value) ATCC9027 [6] | Synergistic activity (FIC value) ATCC19606 [7] | Synergistic activity (FIC value) ATCC13883 [8] |
| --- | --- | --- | --- | --- | --- | --- | --- | --- |
| CCc1oc(N=C2NCCCN2)nc1-c1cccc(C(C)C)c1 [Compound I-165] | 256 | 256 | 256 | 256 | 0.38 | 0.53 | 0.13 | 0.31 |
| CC(C)c1ccc(-c2c[nH]c(N=C3NCCCN3)n2)cc1 [Compound I-166] | 256 | 256 | 256 | 256 | 0.5 | 1.25 | 1.25 | 1.25 |
| Cc1sc(N=C2NCCCN2)nc1-c1cc(C(C)C)cc(C(C)C)c1 [Compound I-167] | 256 | 256 | 256 | 256 | 0.5 | 0.63 | 0.3 | 0.25 |
| CC(C)c1cc(-c2nc(N=C3NCCCN3)sc2Cl)cc(C(C)C)c1O [Compound I-168] | 256 | 256 | 256 | 256 | 0.5 | 0.63 | 0.28 | 0.25 |
| Cc1c(-c2coc(N=C3NCCCN3)n2)ccc(Cl)c1C#N [Compound I-169] | 256 | 256 | 256 | 256 | 0.39 | 0.62 | 0.15 | 0.33 |
| Cc1ccc(O)c(-c2c[nH]c(N=C3NCCCN3)n2)c1 [Compound I-170] | 256 | 256 | 256 | 256 | 0.38 | 0.31 | 0.12 | 0.31 |
| CNS(=O)(=O)c1cc(-c2c[se]c(N=C3NCCCN3)n2)ccc1C [Compound I-171] | 256 | 256 | 256 | 256 | 0.5 | 0.56 | 0.75 | 0.63 |
| CCc1sc(N=C2NCCCN2)nc1-c1cc(C)c(F)c(C)c1 [Compound I-172] | 128 | 64 | 256 | 128 | 0.63 | 1.25 | 0.52 | 0.52 |
| Cc1cc(-c2csc(N=C3NCCCN3)n2)cc(C)c1O [Compound I-173] | 256 | 256 | 256 | 256 | 0.5 | 0.63 | 0.75 | 0.38 |
| N#Cc1ccc(-c2csc(N=C3NCCCN3)n2)c(Br)c1 [Compound I-174] | 256 | 256 | 256 | 256 | 0.63 | 1.25 | 0.52 | 0.52 |
| Clc1sc(N=C2NCCCN2)nc1-c1cccc(Br)c1 [Compound I-175] | 256 | 256 | 256 | 256 | 1.25 | 1.25 | 0.5 | 1.25 |
| O=[N+]([O-])c1cc(-c2nc(N=C3NCCCN3)sc2Br)ccc1Br [Compound I-176] | 256 | 256 | 256 | 256 | 0.38 | 0.53 | 0.13 | 0.31 |
| Fc1sc(N=C2NCCCN2)nc1-c1cc(Br)cc(Br)c1 [Compound I-177] | 256 | 256 | 256 | 256 | 0.63 | 1.25 | 0.5 | 1.25 |
| Oc1c(Br)cc(-c2coc(N=C3NCCCN3)n2)cc1Br [Compound I-178] | 256 | 256 | 256 | 256 | 1.25 | 1.25 | 0.51 | 1.25 |
| Ic1ccccc1-c1c[nH]c(N=C2NCCCN2)n1 [Compound I-179] | 128 | 64 | 256 | 128 | 1.25 | 0.51 | 1.25 | 1.25 |
| Ic1cccc(-c2csc(N=C3NCCCN3)n2)c1 [Compound I-180] | 256 | 256 | 256 | 256 | 1.25 | 1.25 | 0.26 | 1.25 |
| Ic1ccc(-c2csc(N=C3NCCCN3)n2)cc1 [Compound I-181] | 256 | 256 | 256 | 256 | 0.52 | 1.25 | 0.13 | 0.19 |
| Cc1sc(N=C2NCCCN2)nc1-c1cc(I)cc(I)c1 [Compound I-182] | 256 | 256 | 256 | 256 | 0.56 | 0.5 | 0.25 | 0.31 |
| Oc1c(I)cc(-c2nc(N=C3NCCCN3)sc2Cl)cc1I [Compound I-183] | 256 | 256 | 256 | 256 | 1.25 | 0.52 | 0.25 | 1.25 |
